{
  "source": "patent US10238670B2",
  "about": "“9-aminomethyl minocycline compounds and methods of use thereof in urinary tract infection (UTI) treatment” (Paratek Pharmaceuticals, Inc., priority 2016, dated 2019)",
  "assay_type_in_all_cases": "cell-based",
  "key": {"[1]": {"system": "Citrobacter spp.", "assay": "In vitro MIC, 2010 surveillance isolates", "conditions": "N=253"}, "[2]": {"system": "Acinetobacter", "assay": "In vitro MIC, 2010 surveillance isolates", "conditions": "N=952"}, "[3]": {"system": "S. saprophyticus", "assay": "In vitro activity in urine relative to standard media"}},
  "data": [
    {"smiles": "CN(C)c1cc(CNCC(C)(C)C)c(O)c2c1C[C@H]1C[C@H]3[C@H](N(C)C)C(O)=C(C(N)=O)C(=O)[C@@]3(O)C(O)=C1C2=O", "note": "[Compound 1, 9-[(2,2-dimethyl-propylamino)-methyl]-minocycline]", "values": [
      {"measurement": "Cumulative % Inhibition at MIC", "setting": "[1]; MIC 1 μg/ml", "result": 44.7, "unit": "%"},
      {"measurement": "Cumulative % Inhibition at MIC", "setting": "[1]; MIC 2 μg/ml", "result": 79.1, "unit": "%"},
      {"measurement": "Cumulative % Inhibition at MIC", "setting": "[1]; MIC 4 μg/ml", "result": 93.3, "unit": "%"},
      {"measurement": "Cumulative % Inhibition at MIC", "setting": "[1]; MIC 8 μg/ml", "result": 97.6, "unit": "%"},
      {"measurement": "Cumulative % Inhibition at MIC", "setting": "[1]; MIC 16 μg/ml", "result": 100, "unit": "%"},
      {"measurement": "Cumulative % Inhibition at MIC", "setting": "[1]; MIC ≤0.5 μg/ml, listed as head image P00016", "result": 14.6, "unit": "%"},
      {"measurement": "Cumulative % Inhibition at MIC", "setting": "[2]; MIC 1 μg/ml", "result": 44.1, "unit": "%"},
      {"measurement": "Cumulative % Inhibition at MIC", "setting": "[2]; MIC 2 μg/ml", "result": 73.1, "unit": "%"},
      {"measurement": "Cumulative % Inhibition at MIC", "setting": "[2]; MIC 4 μg/ml", "result": 93.5, "unit": "%"},
      {"measurement": "Cumulative % Inhibition at MIC", "setting": "[2]; MIC 8 μg/ml", "result": 98.5, "unit": "%"},
      {"measurement": "Cumulative % Inhibition at MIC", "setting": "[2]; MIC 16 μg/ml", "result": 99.5, "unit": "%"},
      {"measurement": "Cumulative % Inhibition at MIC", "setting": "[2]; MIC ≤0.5 μg/ml, listed as head image P00018", "result": 31.1, "unit": "%"},
      {"measurement": "Cumulative % Inhibition at MIC", "setting": "[2]; MIC ≥32 μg/ml", "result": 100, "unit": "%"},
      {"measurement": "activity in urine relative to standard media", "setting": "[3]", "result": "stable"}
    ]}
  ]
}
